The target in the test is T1, human IL-17AA (Homo sapiens, UniProt Q16552).
T1 construct: host or cells: HEK (human embryonic kidney) cells
T1 sequence (Q16552 24-155): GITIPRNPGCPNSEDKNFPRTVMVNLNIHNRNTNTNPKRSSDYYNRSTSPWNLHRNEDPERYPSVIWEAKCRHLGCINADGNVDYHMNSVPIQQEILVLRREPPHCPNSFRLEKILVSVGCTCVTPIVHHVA
Description: IL-8 release assay in human epithelial keratinocytes adult (HEKa). Particulars: HEKa cells, 3 ng/mL HEK-human IL-17AA + 10 ng/mL human TNFalpha; read-out: Rel EC50 IL-8 release assay. It is filed as cell-based. The method, boiled down: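 Adult human epidermal keratinocytes stimulated 68-72 h at 37 °C with 3 ng/mL HEK-derived human IL-17AA plus 10 ng/mL TNF-alpha (final) in the presence of compound; TNF-alpha alone defines 100% inhibition. Secreted IL-8 measured by HTRF as percent of controls; relative IC50/Emax from four-parameter fit (r^2>0.9), cytotoxicity by PrestoBlue.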

Structures are written as SMILES. Where only a bound is given, the exact number is not on record here.

Take `Cc1n[nH]c(C)c1-c1ccc(NC(=O)[C@@H](NC(=O)c2ccnn2CCCO)C(C2CCC2)C2CCC2)cc1` [Example 166, N-[(1S)-1-[di(cyclobutyl)methyl]-2-[4-(3,5-dimethyl-1H-pyrazol-4-yl)anilino]-2-oxo-ethyl]-2-(3-hydroxypropyl)pyrazole-3-carboxamide]: the EC50 (commonly the concentration at which the effect is half-maximal) is less than 100 nM. For `Cc1n[nH]c(C)c1-c1ccc(NC(=O)C(NC(=O)c2ccnn2C(C)C)C2CCC3(CC2)CC3)cc1` (racemic) [Example 20, N-[2-[4-(3,5-dimethyl-1H-pyrazol-4-yl)anilino]-2-oxo-1-spiro[2.5]octan-6-yl-ethyl]-2-isopropyl-pyrazole-3-carboxamide], the concentration giving a half-maximal response (EC50) was in the range of 100 to 1000 nM. Then `Cc1n[nH]c(C)c1-c1ccc(NC(=O)[C@@H](NC(=O)N2CCCCC2CCO)C2CCCCC2)cc1` (single isomer, unassigned) [Example 470], with greater than 1000 nM. As to `CC(C)n1nccc1C(=O)NC(C(=O)Nc1ccc(-c2c(C3CC3)n[nH]c2C2CC2)cc1)C(C1CC1)C1CC1` (single isomer, unassigned) [Example 385, N-[1-(dicyclopropylmethyl)-2-[4-(3,5-dicyclopropyl-1H-pyrazol-4-yl)anilino]-2-oxo-ethyl]-2-isopropyl-pyrazole-3-carboxamide], the concentration giving a half-maximal response (EC50) is less than 100 nM. Then `Cn1cncc1-c1ccc(NC(=O)[C@@H](NC(=O)OC(C)(C)C)C2Cc3ccccc3C2)cc1` [Example 99, tert-butyl N-[(1S)-1-indan-2-yl-2-[4-(3-methylimidazol-4-yl)anilino]-2-oxo-ethyl]carbamate], with greater than 1000 nM; and `Cc1n[nH]c(C)c1-c1ccc(NC(=O)[C@@H](NC(=O)c2ccnn2C)[C@H]2CCc3c(F)cc(F)cc32)cc1` [Example 249, N-[(1S)-1-[(1S)-4,6-difluoroindan-1-yl]-2-[4-(3,5-dimethyl-1H-pyrazol-4-yl)anilino]-2-oxo-ethyl]-2-methyl-pyrazole-3-carboxamide], with less than 100 nM. `Cc1n[nH]c(C)c1-c1ccc(NC(=O)[C@@H](NC(=O)N2CCCC2CCCO)C2CCCCC2)cc1` (stereo partly drawn) [Example 468, N-[(1S)-1-cyclohexyl-2-[4-(3,5-dimethyl-1H-pyrazol-4-yl)anilino]-2-oxo-ethyl]-2-(3-hydroxypropyl)-pyrrolidine-1-carboxamide]: the concentration for a half-maximal effect (EC50) was greater than 1000 nM.

For the compound `Cc1n[nH]c(C)c1-c1ccc(NC(=O)[C@@H](NC(=O)c2conc2-c2ccc(Cl)cc2)C2CCCCC2)cc1` [Example 69, 3-(4-chlorophenyl)-N-[(1S)-1-cyclohexyl-2-[4-(3,5-dimethyl-1H-pyrazol-4-yl)anilino]-2-oxo-ethyl]isoxazole-4-carboxamide], the EC50 was greater than 1000 nM. On to `Cn1cncc1-c1ccc(NC(=O)[C@@H](NC(=O)OC2CC2)C2CCCCC2)cc1O` [Example 422, Cyclopropyl N-[(1S)-1-cyclohexyl-2-[3-hydroxy-4-(3-methylimidazol-4-yl)anilino]-2-oxo-ethyl]carbamate], for which the 50% effective concentration (EC50) was greater than 1000 nM. On to `Cc1n[nH]c(C)c1-c1ccc(NC(=O)[C@H](CC2CCC2)NC(=O)c2ccnn2C)cc1` [Example 229, N-[(1S)-1-(cyclobutylmethyl)-2-[4-(3,5-dimethyl-1H-pyrazol-4-yl)anilino]-2-oxo-ethyl]-2-methyl-pyrazole-3-carboxamide], for which the EC50 was greater than 1000 nM. On to `Cn1cncc1-c1ccc(NC(=O)[C@@H](NC(=O)c2ccnn2C)C(C2CCCCC2)C2CCCC2)cc1` (single isomer, unassigned) [Example 339A], for which the concentration for a half-maximal effect (EC50) is 100 to 1000 nM.

For the compound `Cc1ncn(C)c1-c1ccc(NC(=O)[C@@H](NC(=O)c2ccnn2C)C2CCCC2)cc1` [Example 335, N-[(1S)-1-cyclopentyl-2-[4-(3,5-dimethylimidazol-4-yl)anilino]-2-oxo-ethyl]-2-methyl-pyrazole-3-carboxamide], the concentration for a half-maximal effect (EC50) is greater than 1000 nM. For `CCn1nccc1C(=O)N[C@H](C(=O)Nc1ccc(-c2c(C)n[nH]c2C)c(O)c1)C(C1CC1)C1CC1` [Example 413, N-[(1S)-1-(dicyclopropylmethyl)-2-[4-(3,5-dimethyl-1H-pyrazol-4-yl)-3-hydroxy-anilino]-2-oxo-ethyl]-2-ethyl-pyrazole-3-carboxamide], the EC50 was less than 100 nM.

With `Cc1[nH]nc(C2CC2)c1-c1ccc(NC(=O)[C@@H](NC(=O)c2ccnn2[C@H](C)CO)C(C2CC2)C2CC2)cc1` [Example 390, N-[(1S)-2,2-dicyclopropyl-1-[[4-(3-cyclopropyl-5-methyl-1H-pyrazol-4-yl)phenyl]carbamoyl]ethyl]-2-[(1R)-2-hydroxy-1-methyl-ethyl]pyrazole-3-carboxamide], the EC50 was less than 100 nM. Regarding `Cc1n[nH]c(N)c1-c1ccc(NC(=O)[C@@H](NC(=O)c2ccnn2C)C(C2CCC2)C2CCC2)cc1` [Example 451, N-[(1S)-1-[[4-(3-amino-5-methyl-1H-pyrazol-4-yl)phenyl]carbamoyl]-2,2-di(cyclobutyl)ethyl]-2-methyl-pyrazole-3-carboxamide], the EC50 was less than 100 nM. As to `Cc1n[nH]c(C)c1-c1ccc(NC(=O)[C@@H](NC(=O)N2CCCC2CO)C2CCCCC2)cc1` (single isomer, unassigned) [Example 473], the EC50 is greater than 1000 nM.

`Cc1n[nH]c(C)c1-c1ccc(NC(=O)[C@@H](NC(=O)c2ccnn2C(C)C)[C@H]2CCCC3(CC3)C2)cc1` [Example 41, N-[(1S)-2-[4-(3,5-dimethyl-1H-pyrazol-4-yl)anilino]-2-oxo-1-[(7S)-spiro[2.5]octan-7-yl]ethyl]-2-isopropyl-pyrazole-3-carboxamide]: the EC50 was less than 100 nM.

Consider `Cc1n[nH]c(C)c1-c1ccc(NC(=O)C(NC(=O)c2ccnn2C)[C@@H]2CCOc3ccccc32)cc1` (mixture of isomers) [Example 26, 1:3 mixture of N-[(1S)-1-[(4R)-chroman-4-yl]-2-[4-(3,5-dimethyl-1H-pyrazo 4-yl)anilino]-2-oxo-ethyl]-2-methyl-pyrazole-3-carboxamide and N-[(1R)-1-[(4R)-chroman-4-yl]-2-[4-(3,5-dimethyl-1H-pyrazol-4-yl)anilino]-2-oxo-ethyl]-2-methyl-pyrazole-3-carboxamide], for which the EC50 is greater than 1000 nM.

Turning to `CC(C)n1nccc1C(=O)N[C@H](C(=O)Nc1ccc(-c2c(C(C)(C)O)ncn2C)cc1)C(C1CC1)C1CC1` [Example 448, N-[(1S)-1-(Dicyclopropylmethyl)-2-[4-[5-(1-hydroxy-1-methyl-ethyl)-3-methyl-imidazol-4-yl]anilino]-2-oxo-ethyl]-2-isopropyl-pyrazole-3-carboxamide], the EC50 was 100 to 1000 nM. On to `Cc1n[nH]c(C)c1-c1ccc(NC(=O)C(NC(=O)c2ccnn2C)C(C(F)(F)F)C(F)(F)F)cc1` (racemic) [Example 14], for which the EC50 is greater than 1000 nM.

Consider `Cc1n[nH]c(C)c1-c1ccc(NC(=O)[C@@H](NC(=O)c2ccnn2C2CC2)C2CCCCC2)cc1` [Example 27, N-[(1S)-1-cyclohexyl-2-[4-(3,5-dimethyl-1H-pyrazol-4-yl)anilino]-2-oxo-ethyl]-2-cyclopropyl-pyrazole-3-carboxamide], for which the EC50 is 100 to 1000 nM. As to `CCn1nccc1C(=O)N[C@H](C(=O)Nc1ccc(-c2c(C)n[nH]c2C)cc1)[C@@H]1CC2(CC2)CCC1(F)F` [Example 180, N-[(1S)-1-[(7S)-6,6-difluorospiro[2.5]octan-7-yl]-2-[4-(3,5-dimethyl-1H-pyrazol-4-yl)anilino]-2-oxo-ethyl]-2-ethyl-pyrazole-3-carboxamide], the EC50 was less than 100 nM.

As to `Cc1n[nH]c(C)c1-c1ccc(NC(=O)[C@@H](NC(=O)N2CCCC2C(C)(C)O)C2CCCCC2)cc1` (single isomer, unassigned) [Example 465], the EC50 is greater than 1000 nM. `Cc1n[nH]c(C)c1-c1ccc(NC(=O)[C@@H](NC(=O)N2CCCCC2CCCO)C2CCCCC2)cc1` (single isomer, unassigned) [Example 461]: the 50% effective concentration (EC50) was greater than 1000 nM.

Regarding `Cc1n[nH]c(C)c1-c1ccc(NC(=O)[C@@H](NC(=O)OC2CC2)C2CCCCC2)cc1O` [Example 424, cyclopropyl N-[(1S)-1-cyclohexyl-2-[4-(3,5-dimethyl-1H-pyrazol-4-yl)-3-hydroxy-anilino]-2-oxo-ethyl]carbamate], the EC50 lay within 100 to 1000 nM. To `Cn1cnnc1-c1ccc(NC(=O)[C@@H](NC(=O)C2(F)CC2)C(c2ccccc2)c2ccccc2)cc1` [Example 353, N-[(1S)-1-benzhydryl-2-[4-(4-methyl-1,2,4-triazol-3-yl)anilino]-2-oxo-ethyl]-1-fluoro-cyclopropanecarboxamide] belongs greater than 1000 nM; to `CCn1nccc1C(=O)N[C@H](C(=O)Nc1ccc(-c2c(C)n[nH]c2C)cc1)C(C)C1CCC1` (single isomer, unassigned) [Example 192], less than 100 nM; to `Cc1n[nH]c(C)c1-c1ccc(NC(=O)[C@@H](NC(=O)c2ccnn2C2CCOC2)C(C2CC2)C2CC2)cc1` (stereo partly drawn) [Example 219, N-[(1S)-1-(dicyclopropylmethyl)-2-[4-(3,5-dimethyl-1H-pyrazol-4-yl)anilino]-2-oxo-ethyl]-2-tetrahydrofuran-3-yl-pyrazole-3-carboxamide], less than 100 nM.

As for `Cc1n[nH]c(C)c1-c1ccc(NC(=O)[C@@H](NC(=O)c2cn(C)c3ncccc23)C2CCCCC2)cc1` [Example 71, N-[(1S)-1-cyclohexyl-2-[4-(3,5-dimethyl-1H-pyrazol-4-yl)anilino]-2-oxo-ethyl]-1-methyl-pyrrolo[2,3-b]pyridine-3-carboxamide], the EC50 lay in the range of 100 to 1000 nM.

`CCc1n[nH]c(CC)c1-c1ccc(NC(=O)[C@@H](NC(=O)c2ccnn2C(C)C)C(C2CC2)C2CC2)cc1` [Example 399, N-[(1S)-1-(dicyclopropylmethyl)-2-[4-(3,5-diethyl-1H-pyrazol-4-yl)anilino]-2-oxo-ethyl]-2-isopropyl-pyrazole-3-carboxamide]: the EC50 was less than 100 nM.

The values above are taken from patent publication US11377425B1, “Small molecule modulators of IL-17” (LEO Pharma A/S, priority 2018, dated 2022).
